Data on 13 compounds can be found in ChEMBL document CHEMBL5725928, “Substituted 4,5,6,7-tetrahydropyrazolo[1,5-A]pyrazine derivatives as casein kinase 1 D/E inhibitors” (2017).

The target in this assay is Casein kinase I isoform epsilon (Homo sapiens, UniProt P49674). The assay can be described thus: Kinase Assay: The kinase assay was performed in V-bottom 384-well plates. The final assay volume was 30 μl prepared from 15 μl additions of enzyme, substrates (fluoresceinated peptide FL-AHA-KRRRAL-PSER-VASLPGL-OH and ATP) and test compounds in assay buffer (20 mM HEPES pH 7.4, 30 mM MgCl2, 0.015% Brij35 and 4 mM DTT). The reaction was incubated at room temperature for 22 hours and terminated by adding 45 μl of 35 mM EDTA to each sample. The reaction mixture was analyzed on the Caliper LABCHIP®3000 (Caliper, Hopkinton, Mass.) by electrophoretic separation of the unphosphorylated substrate and phosphorylated product. […] The final concentration of reagents in the assay were 200 pM CK1ε or CK1δ, 50 μM ATP, 1.5 μM FL-AHA-KRRRAL-PSER-VASLPGL-OH, and 1.6% DMSO. Dose response curves were generated to determine the concentration required to inhibit 50% of the kinase activity (IC50). Compounds were dissolved at 10 mM in dimethylsulfoxide (DMSO) and evaluated at eleven concentrations. IC50 values were derived by non-linear regression analysis.
Chain of Casein kinase I isoform epsilon (P49674 whole entry, canonical isoform): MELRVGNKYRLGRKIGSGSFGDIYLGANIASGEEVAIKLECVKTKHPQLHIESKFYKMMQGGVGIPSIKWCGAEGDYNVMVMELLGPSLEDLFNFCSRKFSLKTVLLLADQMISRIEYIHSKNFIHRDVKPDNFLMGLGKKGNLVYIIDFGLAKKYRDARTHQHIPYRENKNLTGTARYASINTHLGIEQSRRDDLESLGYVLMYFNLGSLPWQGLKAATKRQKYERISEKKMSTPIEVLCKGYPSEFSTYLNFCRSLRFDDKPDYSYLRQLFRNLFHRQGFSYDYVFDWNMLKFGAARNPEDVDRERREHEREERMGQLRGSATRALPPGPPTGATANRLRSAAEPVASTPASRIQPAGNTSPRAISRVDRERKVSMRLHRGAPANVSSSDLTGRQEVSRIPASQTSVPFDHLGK
In the case of `NC(=O)c1c(-c2ccc(F)c(Cl)c2)nn2c1CN(C(=O)Nc1cc(F)cc(C(F)(F)F)c1)CC2`, the IC50 was below 10 nM.

Regarding `NC(=O)c1c(-c2ccc(F)c(Cl)c2)nn2c1CN(C(=O)Nc1ccc3c(c1)S(=O)(=O)C=C3)CC2`, the IC50 is below 10 nM.

Take `NC(=O)c1c(-c2ccc(Cl)c(F)c2)nn2c1CN(C(=O)Nc1ccc(Cl)c(Cl)c1)CC2`: the IC50 is below 10 nM.

As for `Cc1nc(-c2ccc(NC(=O)N3CCn4nc(-c5ccc(F)c(Cl)c5)c(C(N)=O)c4C3)cc2)cs1`, the IC50 is below 10 nM.

Regarding `Cc1nc(-c2ccc(NC(=O)N3CCn4nc(-c5cccc(F)c5)c(C(N)=O)c4C3)cc2)cs1`, the IC50 was below 10 nM.

On to `N#Cc1ccc(NC(=O)N2CCn3nc(-c4cnc(F)c(Cl)c4)c(C(N)=O)c3C2)cc1C(F)(F)F`, for which the IC50 is below 10 nM.

Regarding `NC(=O)c1c(-c2cccc(F)c2)nn2c1CN(C(=O)Nc1cc(Cl)cc(Cl)c1)CC2`, the 50% inhibitory concentration (IC50) is below 10 nM.

On to `N#Cc1ccc(NC(=O)N2CCn3nc(-c4cccc(Cl)c4)c(C(N)=O)c3C2)cc1N1CCOCC1`, for which the IC50 is below 10 nM.

Regarding `NC(=O)c1c(-c2ccc(F)c(Cl)c2)nn2c1CN(C(=O)Nc1ccc(F)cc1)CC2`, the IC50 is below 10 nM.

`COc1cccc(-c2nn3c(c2C(N)=O)CN(C(=O)Nc2ccc(C#N)cc2)CC3)c1`: the IC50 was below 10 nM.

Turning to `NC(=O)c1c(-c2cccc(F)c2)nn2c1CN(C(=O)NC1C3CC4CC(C3)CC1C4)CC2` (stereo not drawn), the IC50 was below 10 nM.

Consider `NC(=O)c1c(-c2cc(F)cc(Cl)c2)nn2c1CN(C(=O)Nc1cc(F)cc(C(F)(F)F)c1)CC2`, for which the IC50 is below 10 nM.

Turning to `Cc1ncc(-c2ccc(NC(=O)N3CCn4nc(-c5cccc(F)c5)c(C(N)=O)c4C3)cc2)o1`, the IC50 is below 10 nM.
